What was measured:
Assay in all cases: relative viability (nuclei count vs DMSO), 5 days (fraction); higher = more cells survive
4EGI-1 + Phenformin = compound: O=C(O)C(Cc1ccccc1[N+](=O)[O-])=NNc1nc(-c2ccc(Cl)c(Cl)c2)cs1 (mixture of isomers) [4EGI-1] + N=C(N)NC(=N)NCCc1ccccc1 [Phenformin] (partner 250 µM)
Outline: (§1)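 After 5 days of treatment, lung cancer cells in 1536-well plates were fixed and stained in a single step (final 0.05% Triton X-100, 1% formaldehyde, 1 ug/ml Hoechst) and their nuclei counted on 4× images. Treatment had been applied by pin tool the day after seeding as one drug alone or as a fixed anchor-drug dose with five library-drug doses (not always all listed) in √10 steps. Relative viability is the nuclei count of treated wells divided by that of vehicle wells, and values are medians of duplicate plates.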

XMD8-85 + Vorinostat = compound: CN1CCN(CC1)C2=CC(=C(C=C2)NC3=NC=C4C(=N3)N(C5=CC=CC=C5C(=O)N4C)C)OC [XMD8-85] + O=C(CCCCCCC(=O)Nc1ccccc1)NO [Vorinostat] (partner 1 µM)
Outline: as §1

4EGI-1 + AZD7762 = compound: O=C(O)C(Cc1ccccc1[N+](=O)[O-])=NNc1nc(-c2ccc(Cl)c(Cl)c2)cs1 (mixture of isomers) [4EGI-1] + NC(=O)Nc1cc(-c2cccc(F)c2)sc1C(=O)N[C@H]1CCCNC1 [AZD7762] (partner 0.2 µM)
Outline: as §1

XMD8-85 + Bortezomib = compound: CN1CCN(CC1)C2=CC(=C(C=C2)NC3=NC=C4C(=N3)N(C5=CC=CC=C5C(=O)N4C)C)OC [XMD8-85] + CC(C)C[C@H](NC(=O)[C@H](Cc1ccccc1)NC(=O)c1cnccn1)B(O)O [Bortezomib] (partner 0.002 µM)
Outline: as §1

Row | Cell Line | relative viability (4EGI-1 + Phenformin; first compound 0.5 µM) | relative viability (4EGI-1 + Phenformin; first compound 1.581 µM) | relative viability (4EGI-1 + Phenformin; first compound 5 µM) | relative viability (4EGI-1 + Phenformin; first compound 15.81 µM) | relative viability (4EGI-1 + Phenformin; first compound 50 µM) | relative viability (XMD8-85 + Vorinostat; first compound 0.08 µM) | relative viability (XMD8-85 + Vorinostat; first compound 0.253 µM) | relative viability (XMD8-85 + Vorinostat; first compound 0.8 µM) | relative viability (XMD8-85 + Vorinostat; first compound 2.53 µM) | relative viability (XMD8-85 + Vorinostat; first compound 8 µM) | relative viability (4EGI-1 + AZD7762; first compound 0.5 µM) | relative viability (4EGI-1 + AZD7762; first compound 5 µM) | relative viability (4EGI-1 + AZD7762; first compound 15.81 µM) | relative viability (4EGI-1 + AZD7762; first compound 50 µM) | relative viability (XMD8-85 + Bortezomib; first compound 0.08 µM) | relative viability (XMD8-85 + Bortezomib; first compound 0.253 µM) | relative viability (XMD8-85 + Bortezomib; first compound 0.8 µM) | relative viability (XMD8-85 + Bortezomib; first compound 2.53 µM) | relative viability (XMD8-85 + Bortezomib; first compound 8 µM) | relative viability (4EGI-1 + AZD7762; first compound 1.581 µM)
1 | EMC-BAC-2 | 0.664 | 0.524 | 0.612 | 0.608 | 0.385 | 0.424 | 0.468 | 0.413 | 0.385 | 0.185 | 1.36 | 1.17 | 1 | 0.599 | 1.06 | 1.05 | 1.1 | 1.16 | 0.965 | 
2 | NCI-H2126 | 0.553 |  | 0.569 | 0.488 | 0.463 | 0.772 |  | 0.795 |  | 0.553 | 1.03 | 1 | 0.901 | 0.772 | 1.04 | 1.13 | 1.18 | 1.15 | 1.12 | 1.09
3 | NCI-H441 | 1.04 | 0.76 | 0.919 | 0.785 | 0.183 | 0.72 | 0.666 | 0.859 | 1.02 | 0.698 | 1.38 | 1.28 | 1.08 | 0.772 | 0.509 | 0.442 | 0.392 | 0.581 | 0.367 | 1.13
4 | HCC-366 | 0.676 | 0.569 | 0.741 | 0.631 | 0.443 | 0.292 | 0.346 | 0.304 | 0.378 | 0.181 | 0.33 | 0.293 | 0.174 | 0.0904 | 0.91 | 0.815 | 1.08 | 1.1 | 1.09 | 0.23
5 | HCC-44 | 0.184 |  | 0.192 | 0.118 | 0.137 | 1.11 | 1.07 | 1.07 | 1.16 | 1.04 | 1.02 | 0.976 | 0.922 | 0.799 | 0.938 | 0.911 | 0.816 | 0.962 | 0.679 | 0.984
6 | BEN | 0.278 | 0.267 | 0.281 | 0.241 | 0.269 | 0.554 | 0.536 | 0.627 | 0.501 | 0.455 | 0.76 | 0.689 | 0.593 | 0.382 | 0.795 | 0.808 | 0.839 | 0.549 | 0.416 | 0.657
7 | HARA | 0.593 | 0.506 | 0.497 | 0.41 | 0.376 | 0.549 | 0.592 | 0.565 | 0.427 | 0.47 | 0.397 | 0.241 | 0.195 | 0.161 | 1.08 | 1.01 | 1.26 | 1.16 | 0.866 | 0.48
8 | NCI-H2085 | 0.8 | 0.795 | 0.823 | 0.536 | 0.404 | 0.774 | 0.812 | 0.762 | 0.756 | 0.546 | 1.1 | 0.969 | 0.736 | 0.655 | 0.92 | 1.03 | 1.18 | 0.95 |  | 1.02

From the supplement of paper PMC10307832
